The test system of one data set is HeLa. The experiment in a line: Antiproliferative activity against human HeLa cells assessed as reduction in cell viability incubated for 48 hrs by CCk-8 assay. Type of data set: functional, cell-based.
The next data set has as its system A549. The experiment in a line: Antiproliferative activity against human A549 cells assessed as reduction in cell viability incubated for 48 hrs by CCk-8 assay. Type of data set: functional, cell-based. The following applies: A549, 48 h.
The test system of a further data set is MDA-MB-231. The experiment in a line: Antiproliferative activity against human MDA-MB-231 cells assessed as reduction in cell viability incubated for 48 hrs by CCk-8 assay. Type of data set: functional, cell-based. The following applies: MDA-MB-231, 48 h.
The subject of the next data set is A-375. The experiment in a line: Antiproliferative activity against human A-375 cells assessed as reduction in cell viability incubated for 48 hrs by CCk-8 assay. Type of data set: functional, cell-based. The following applies: A-375, 48 h.
A short description of data set [1]: Antiproliferative activity against human L02 cells assessed as reduction in cell viability incubated for 48 hrs by CCk-8 assay. Type of data set: toxicity, cell-based.
In the next data set the test system is DU-145. The experiment in a line: Antiproliferative activity against human DU-145 cells assessed as reduction in cell viability incubated for 48 hrs by CCk-8 assay. The class given is functional, cell-based. The settings on record: DU-145, 48 h.
A further data set has as its system HepG2. The experiment in a line: Antiproliferative activity against human HepG2 cells assessed as reduction in cell viability incubated for 48 hrs by CCk-8 assay. The class given is functional, cell-based. The settings on record: HepG2, 48 h.

pIC50: −log10 of the molar value.

As usually defined, the pIC50 is −log10 of the IC50, conventionally taken in molar units. In general, IC50 refers to the concentration that gives 50% inhibition. Consider `C[C@H]1CCC/C=C/[C@@H]2C[C@H](OC(=O)CCCC(=O)OCCCCCCOc3ccc(-c4cc(=S)ss4)cc3)C[C@H]2[C@H](OC(=O)CCCC(=O)OCCCCCCOc2ccc(-c3cc(=S)ss3)cc2)/C=C/C(=O)O1`, for which the negative-log IC50 (pIC50) in the data set on HeLa, with A549, in the data set on MDA-MB-231, in the data set with A-375, with DU-145 and in the data set on HepG2 was less than 4.40 in each case. The IC50 at 48 h in data set [1] is more than 40 µM.

In the case of `C[C@H]1CCC/C=C/[C@@H]2C[C@H](OC(=O)c3ccccc3C(=O)OCCOc3ccc(-c4cc(=S)ss4)cc3)C[C@H]2[C@H](OC(=O)c2ccccc2C(=O)OCCOc2ccc(-c3cc(=S)ss3)cc2)/C=C/C(=O)O1`, the pIC50 in the data set with HeLa, in the data set with A549, with MDA-MB-231, in the data set on A-375, with DU-145 and in the data set on HepG2 was less than 4.40 each time. Also, the IC50 at 48 h in data set [1] was more than 40 µM.

As to `C[C@H]1CCC/C=C/[C@@H]2C[C@H](OC(=O)CCCC(=O)Oc3ccc(-c4cc(=S)ss4)cc3)C[C@H]2[C@H](OC(=O)CCCC(=O)Oc2ccc(-c3cc(=S)ss3)cc2)/C=C/C(=O)O1`, the negative logarithm of the IC50 (pIC50) in the data set with HeLa, with A549, with MDA-MB-231, in the data set on A-375, in the data set with DU-145 and in the data set with HepG2 was less than 4.40 in each case. In data set [1], the IC50 at 48 h is more than 40 µM.

As for `CC(=O)O[C@H]1C(=O)[C@@]2(C)[C@H]([C@H](OC(=O)c3ccccc3)[C@]3(O)C[C@H](OC(=O)[C@H](O)[C@@H](NC(=O)c4ccccc4)c4ccccc4)C(C)=C1C3(C)C)[C@]1(OC(C)=O)CO[C@@H]1C[C@@H]2O` [PACLITAXEL], the negative-log IC50 (pIC50) in the data set with HeLa is 7.47; with A549 it was 7.85; in the data set with MDA-MB-231 it was 6.48; in the data set with A-375, 7.23; in the data set with HepG2, 6.26. Besides, the half-maximal inhibitory concentration (IC50) at 48 h in data set [1] amounted to 0.13 µM.

`Oc1ccc(-c2cc(=S)ss2)cc1`: the pIC50 is 5.19 in the data set with HeLa; 4.56 in the data set with A549; 4.48 with MDA-MB-231; less than 4.40 in the data set on A-375; 4.90 with DU-145; 4.86 in the data set on HepG2. Besides, in data set [1], the IC50 at 48 h was 16.8 µM.

Consider `C[C@H]1CCC/C=C/[C@@H]2C[C@H](O)C[C@H]2[C@H](OC(=O)c2ccccc2C(=O)OCCCCCCOc2ccc(-c3cc(=S)ss3)cc2)/C=C/C(=O)O1`, for which the pIC50 in the data set with HeLa, in the data set with A549, in the data set on MDA-MB-231, with A-375, in the data set with DU-145 and in the data set with HepG2 was less than 4.40 in each case. The concentration for half-maximal inhibition (IC50) at 48 h in data set [1] was more than 80 µM.

With `C[C@H]1CCC/C=C/[C@@H]2C[C@H](OC(=O)CCC(=O)OCCOc3ccc(-c4cc(=S)ss4)cc3)C[C@H]2[C@H](O)/C=C/C(=O)O1`, the pIC50 with HeLa, in the data set on A549, in the data set on MDA-MB-231, with A-375, in the data set on DU-145 and in the data set on HepG2 was less than 4.40 throughout. In data set [1], the IC50 at 48 h was more than 80 µM.

For `C[C@H]1CCC/C=C/[C@@H]2C[C@H](OC(=O)CCCC(=O)OCCOc3ccc(-c4cc(=S)ss4)cc3)C[C@H]2[C@H](OC(=O)CCCC(=O)OCCOc2ccc(-c3cc(=S)ss3)cc2)/C=C/C(=O)O1`, the pIC50 in the data set on HeLa, in the data set on A549, with MDA-MB-231, in the data set on A-375, in the data set on DU-145 and with HepG2 was less than 4.40 in each case. For the same compound, the IC50 at 48 h in data set [1] was more than 40 µM.

For the compound `C[C@H]1CCC/C=C/[C@@H]2C[C@H](OC(=O)CCC(=O)OCCOc3ccc(-c4cc(=S)ss4)cc3)C[C@H]2[C@H](OC(=O)CCC(=O)OCCOc2ccc(-c3cc(=S)ss3)cc2)/C=C/C(=O)O1`, the pIC50 in the data set on HeLa is 5.25; with A549 it was less than 4.40; with MDA-MB-231, less than 4.40; in the data set on A-375, less than 4.40; in the data set on DU-145, less than 4.40; in the data set with HepG2, less than 4.40. For the same compound, the IC50 at 48 h in data set [1] is more than 40 µM.

Consider `C[C@H]1CCC/C=C/[C@@H]2C[C@H](OC(=O)c3ccccc3C(=O)Oc3ccc(-c4cc(=S)ss4)cc3)C[C@H]2[C@H](OC(=O)c2ccccc2C(=O)Oc2ccc(-c3cc(=S)ss3)cc2)/C=C/C(=O)O1`, for which the pIC50 in the data set on HeLa, in the data set on A549, with MDA-MB-231, in the data set on A-375, in the data set on DU-145 and with HepG2 was less than 4.40 in each case. Further, the half-inhibitory concentration (IC50) at 48 h in data set [1] is more than 40 µM.

`C[C@H]1CCC/C=C/[C@@H]2C[C@H](OC(=O)CCCC(=O)OCCCCOc3ccc(-c4cc(=S)ss4)cc3)C[C@H]2[C@H](OC(=O)CCCC(=O)OCCCCOc2ccc(-c3cc(=S)ss3)cc2)/C=C/C(=O)O1`: the pIC50 in the data set with HeLa, with A549, in the data set on MDA-MB-231, in the data set on A-375, in the data set on DU-145 and in the data set with HepG2 was less than 4.40 in each case. Besides, in data set [1], the IC50 at 48 h is more than 40 µM.

`C[C@H]1CCC/C=C/[C@@H]2C[C@H](O)C[C@H]2[C@H](OC(=O)c2ccccc2C(=O)OCCOc2ccc(-c3cc(=S)ss3)cc2)/C=C/C(=O)O1`: the negative logarithm of the IC50 (pIC50) in the data set on HeLa, in the data set on A549, with MDA-MB-231, in the data set with A-375, in the data set with DU-145 and in the data set on HepG2 was less than 4.40 throughout. Besides, the IC50 at 48 h in data set [1] is more than 80 µM.

Turning to `C[C@H]1CCC/C=C/[C@@H]2C[C@H](OC(=O)CCC(=O)OCCCCCCOc3ccc(-c4cc(=S)ss4)cc3)C[C@H]2[C@H](O)/C=C/C(=O)O1`, the pIC50 in the data set on HeLa was 4.60; in the data set on A549, less than 4.40; with MDA-MB-231 it was less than 4.40; with A-375, less than 4.40; in the data set on DU-145, less than 4.40; in the data set on HepG2, less than 4.40. Further, the 50% inhibitory concentration (IC50) at 48 h in data set [1] is more than 80 µM.

`C[C@H]1CCC/C=C/[C@@H]2C[C@H](OC(=O)CCC(=O)OCCCCCCOc3ccc(-c4cc(=S)ss4)cc3)C[C@H]2[C@H](OC(=O)CCC(=O)OCCCCCCOc2ccc(-c3cc(=S)ss3)cc2)/C=C/C(=O)O1`: the negative-log IC50 (pIC50) in the data set with HeLa, in the data set on A549, with MDA-MB-231, with A-375, with DU-145 and in the data set on HepG2 was less than 4.40 throughout. Moreover, the IC50 at 48 h in data set [1] was more than 40 µM.

On to `C[C@H]1CCC/C=C/[C@@H]2C[C@H](OC(=O)c3ccccc3C(=O)OCCCCCCOc3ccc(-c4cc(=S)ss4)cc3)C[C@H]2[C@H](OC(=O)c2ccccc2C(=O)OCCCCCCOc2ccc(-c3cc(=S)ss3)cc2)/C=C/C(=O)O1`, for which the negative logarithm of the IC50 (pIC50) with HeLa, in the data set on A549, with MDA-MB-231, in the data set with A-375, in the data set on DU-145 and with HepG2 was less than 4.40 throughout. Moreover, the IC50 at 48 h in data set [1] was more than 40 µM.

For the compound `C[C@H]1CCC/C=C/[C@@H]2C[C@H](OC(=O)CCC(=O)Oc3ccc(-c4cc(=S)ss4)cc3)C[C@H]2[C@H](OC(=O)CCC(=O)Oc2ccc(-c3cc(=S)ss3)cc2)/C=C/C(=O)O1`, the negative logarithm of the IC50 (pIC50) in the data set with HeLa, in the data set on A549, with MDA-MB-231, in the data set with A-375, in the data set with DU-145 and in the data set on HepG2 was less than 4.40 in each case. For the same compound, the IC50 at 48 h in data set [1] is more than 40 µM.

With `C[C@H]1CCC/C=C/[C@@H]2C[C@H](OC(=O)c3ccccc3C(=O)OCCCCOc3ccc(-c4cc(=S)ss4)cc3)C[C@H]2[C@H](OC(=O)c2ccccc2C(=O)OCCCCOc2ccc(-c3cc(=S)ss3)cc2)/C=C/C(=O)O1`, the pIC50 with HeLa, with A549, with MDA-MB-231, in the data set with A-375, in the data set with DU-145 and in the data set on HepG2 was less than 4.40 each time. Further, in data set [1], the IC50 at 48 h was more than 40 µM.

For the compound `C[C@H]1CCC/C=C/[C@@H]2C[C@H](OC(=O)CCC(=O)OCCCCOc3ccc(-c4cc(=S)ss4)cc3)C[C@H]2[C@H](O)/C=C/C(=O)O1`, the negative logarithm of the IC50 (pIC50) in the data set with HeLa, in the data set on A549, in the data set on MDA-MB-231, in the data set with A-375, in the data set with DU-145 and with HepG2 was less than 4.40 each time. In addition, the IC50 at 48 h in data set [1] is more than 80 µM.

Turning to `C[C@H]1CCC/C=C/[C@@H]2C[C@H](OC(=O)CCC(=O)OCCCCOc3ccc(-c4cc(=S)ss4)cc3)C[C@H]2[C@H](OC(=O)CCC(=O)OCCCCOc2ccc(-c3cc(=S)ss3)cc2)/C=C/C(=O)O1`, the pIC50 with HeLa, with A549, with MDA-MB-231, in the data set on A-375, in the data set on DU-145 and in the data set with HepG2 was less than 4.40 throughout. In data set [1], the half-inhibitory concentration (IC50) at 48 h is more than 40 µM.

As for `C[C@H]1CCC/C=C/[C@@H]2C[C@H](O)C[C@H]2[C@H](OC(=O)c2ccccc2C(=O)OCCCCOc2ccc(-c3cc(=S)ss3)cc2)/C=C/C(=O)O1`, the pIC50 with HeLa is 4.57; with A549, less than 4.40; in the data set with MDA-MB-231, less than 4.40; in the data set on A-375, less than 4.40; with DU-145, less than 4.40; with HepG2, less than 4.40. Further, the 50% inhibitory concentration (IC50) at 48 h in data set [1] was more than 80 µM.
